Test results reported in patent publication US12679839B2, “Cyclin-dependent kinase 7 (CDK7) non-covalent inhibitors” (JANSSEN PHARMACEUTICA NV, priority 2020, dated 2026).

Legend:
[1] = molecular target: T1, CDK7/Cyclin H/MAT-1 complex (Homo sapiens, UniProt P50613); assay: Absorbance kinetic assay (20 nM CDK7/Cyclin H/MAT-1 complex); format: biochemical; conditions: for IC50: read-out: CDK7 (20 nM) pIC50 (converted)
T1 construct: Human CDK7 (amino acids 1-346); His6 (N); TEV protease cleavage site (N); made in house; host or cells: baculovirus-SF9 insect cells
T1 sequence (P50613 whole entry, the tested form may be a part): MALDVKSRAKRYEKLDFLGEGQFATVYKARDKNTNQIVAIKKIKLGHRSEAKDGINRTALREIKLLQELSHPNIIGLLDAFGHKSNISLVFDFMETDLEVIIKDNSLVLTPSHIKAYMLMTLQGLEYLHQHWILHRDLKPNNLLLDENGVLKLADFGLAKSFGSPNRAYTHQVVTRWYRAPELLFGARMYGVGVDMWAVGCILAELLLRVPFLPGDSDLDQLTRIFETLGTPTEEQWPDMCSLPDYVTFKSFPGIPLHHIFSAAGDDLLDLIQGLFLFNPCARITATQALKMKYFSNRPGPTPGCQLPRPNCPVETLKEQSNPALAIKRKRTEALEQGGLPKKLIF
T1 sequence (P51946 whole entry partner, the tested form may be a part): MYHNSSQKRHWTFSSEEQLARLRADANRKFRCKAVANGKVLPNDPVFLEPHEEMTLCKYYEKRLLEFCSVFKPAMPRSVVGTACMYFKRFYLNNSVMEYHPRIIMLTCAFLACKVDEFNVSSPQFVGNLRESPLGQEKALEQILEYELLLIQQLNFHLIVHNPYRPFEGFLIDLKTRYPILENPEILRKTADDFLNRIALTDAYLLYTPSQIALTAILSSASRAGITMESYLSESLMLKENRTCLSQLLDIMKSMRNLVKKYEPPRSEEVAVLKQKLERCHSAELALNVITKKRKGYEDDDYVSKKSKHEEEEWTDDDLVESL
T1 sequence (P51948 whole entry partner, the tested form may be a part): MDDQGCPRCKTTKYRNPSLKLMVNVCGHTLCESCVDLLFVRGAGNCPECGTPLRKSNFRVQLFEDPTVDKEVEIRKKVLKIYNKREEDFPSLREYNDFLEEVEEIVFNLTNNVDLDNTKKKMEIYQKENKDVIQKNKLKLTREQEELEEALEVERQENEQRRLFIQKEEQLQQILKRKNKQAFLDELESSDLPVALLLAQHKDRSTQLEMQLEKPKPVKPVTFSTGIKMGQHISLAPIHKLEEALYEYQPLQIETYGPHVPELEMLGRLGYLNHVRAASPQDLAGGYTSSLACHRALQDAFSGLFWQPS
Procedure: Human CDK7 (amino acids 1-346) containing an N-terminal His6-tag followed by a tobacco etch virus (TEV) protease cleavage site, human MAT1 (amino acids 1-309) and human cyclin H (amino acids 1-323) were co-expressed in the baculovirus-SF9 insect cell expression system to generate a trimeric complex. Cell pellets were collected 72 h post-infection and were resuspended by Dounce homogenization in 20 mM Hepes-NaOH (pH 8.0), 300 mM NaCl, 10% glycerol, 2 mM dithiothreitol DTT), and 20 mM Imidazole supplemented with cOmplete™ Protease Inhibitor Cocktail (Roche) and 25 U/mL Benzonase® Nuclease HC according to the manufacturer's instructions. Cells were lysed by passing through a Microfluidics M110Y Microfluidizer 3 times at 600 kPa followed by centrifugation at 38,000×g at 4° C. for 1 hour. The supernatant was loaded onto a pre-equilibrated HisTrap HP column and eluted in 20 mM Hepes-NaOH (pH 8.0), 50 mM NaCl, 10% glycerol, 2 mM DTT, and 400 mM Imidazole. The eluate was further purified by gel filtration on a Superdex S200 16/60 column and eluted with 20 mM Hepes-NaOH (pH 7.5), 50 mM NaCl, 10% Glycerol, 2 mM DTT. Fractions containing a trimeric complex of CDK7, cyclin H, and MAT1 in a 1:1:1 ratio were pooled and concentrated to 3 mg/mL in a 10 kDa MWCO concentrator, and diluted to a final concentration of 1.6 mg/mL in 11.1 mM Hepes-NaOH (pH 8.0), 27.8 mM NaCl, 1.1 mM DTT and 50% glycerol. […]
Absorbance Kinetic Assay (20 nM CDK7/Cyclin H/MAT-1 Complex)
CDK7 complex catalyzes the ATP-dependent phosphorylation of a peptide substrate CDK7/9-tide that is derived from RNA Pol II to produce phosphorylated peptide and ADP. The kinase reaction product ADP was converted to lactate and NAD^+ in the presence of phosphoenol pyruvate (PEP), NADH and coupling enzymes lactate dehydrogenase (LDH) and pyruvate kinase (PK). CDK7 complex catalytic activity was measured by following the absorbance intensity continuously at 340 nm that corresponds with the depletion of NADH.
Absorbance at 340 nm was followed kinetically at an interval of 2 minutes for 8 hours.
The assay was carried out with 100 μl reaction volume per well in a 384-well plate that was pre-spotted nanoliter volume of compounds by LabCyte Echo 555. Compound dilution plates were made by 2-fold (could vary upon necessity) dilution in DMSO for 11 concentrations plus a DMSO control of uninhibited reaction. 2× substrate and coupling reagent mixture was added to the assay plate followed by an addition of an equal volume of 40 nM CDK7/Cyclin H/MAT-1 complex. After mixing, assay plates were spun at 2000 rpm for 3 minutes and then transferred to the plate reader for data collection.
For reversible inhibitors, the absorbance reaction progress curves were linear. The steady-state rate was derived from the slope of the linear curves. The following equation is applied to determine percent inhibition.
[formula] • νo=max rate (uninhibited rate) • νi=inhibited rate
The IC50 value is calculated by the following equation:
[formula] where νo is the rate in the absence of inhibitor, νmin is the rate at highest inhibitor concentration, and h is the Hill coefficient. Flint Assay (5 nM CDK7/Cyclin H/MAT-1 Complex)

[2] = tested on: RNA polymerase II Serine 5 phosphorylation (Rpb1 CTD), downstream substrate of CDK7; assay: Imaging-based cellular RNA PolII Ser5 phosphorylation assay in A549 cells; format: cell-based, human; conditions: Homo sapiens, A549, 3 h, challenged with compound for 3 hours, read-out: pRNA polII Ser5 (A549) pIC50 (converted)
Source text: Dosing curves were fitted using the following equation to obtain IC50: Y=Bottom+(Top−Bottom)/(1+10^((log IC50−X)*Hill slope)) where X=log10 of the compound concentration; top and bottom can be defined by PC and NC respectively. Imaging-Based Cellular RNA PolII Ser5 Phosphorylation Assay
To evaluate inhibition of CDK7 kinase activity, a 384-well automated imaging assay was used. This assay detects Serine 5 phosphorylation on a unique heptapeptide sequence in the C-terminal domain of Rpb1 subunit of RNA polymerase II, the downstream substrate of CDK7. This heptapeptide sequence is repeated up to 52 times in the CTD of Rpb1.
A549 adenocarcinoma human alveolar basal epithelial cells (ATCC, CCL-185), rabbit Phospho-Rpb1 CTD (Ser5) antibody (D9N51 (Cell Signaling Technology)), DMEM (Sigma), Fetal Bovine Serum (Biowest), L-glutamine (Sigma), Penicillin/Streptomycin (Life Technologies), Sodium Pyruvate (Sigma), Hepes (Sigma), poly-D-lysine coated μclear 384 black plates (Greiner), formaldehyde (PolySciences), D-PBS (Sigma), Methanol (Sigma), Alexa Fluor 488 goat anti rabbit IgG secondary antibody (Life Technologies), HCS CellMask™ Deep Red stain (Life Technologies), Hoechst 33258 (Invitrogen).
RNA Polymerase II Serine 5 phosphorylation was detected using a specific rabbit Phospho-Rpb1 CTD (Ser5) antibody. A549 adenocarcinoma human alveolar basal epithelial cells were seeded in 20 μl medium (DMEM supplemented with 1% Fetal Bovine Serum (heat inactivated 30′ 56° C.), 2 mM L-glutamine, 50 U/ml penicillin 50 μg/ml streptomycin, 1 mM sodium pyruvate and 50 mM hepes) at 1000 cells/well and cultured in poly-D-lysine coated μclear 384 black plates for 20 hours at 37° C. and 5% CO2.
After incubation cells were challenged with compound for 3 hours at 37° C. and 5% CO2. DMSO was used as high control and as low control 10 μM of LDC4297 reference compound was used. 40 nl of test compounds and controls were spotted in cell plates using Echo Liquid Handler (Echo 550, Labcyte). Incubation was followed by 20 minutes fixation with 20 μl 10% formaldehyde at room temperature. Medium/formaldehyde solution was removed, plates were washed 3 times with 30 μl D-PBS (w/o Ca^2+ and Ma^2+) and permeabilization was done by adding 20 μl ice cold methanol for 20 minutes. Cells were washed again 3 times with 30 μl D-PBS and 20 μl blocking buffer (25 ml fetal bovine serum in 500 ml D-PBS) was added for 1 hour.
After removing blocking buffer 20 μl 1/1000 primary antibody rabbit. Phospho-Rpb1 CTD (Ser5) antibody was added which binds to the phosphorylated Serine5 of the heptapeptide sequences in the CTD of Rpb1. Primary antibody was removed, and plates were washed 3 times with 30 μl D-PBS followed by addition of 20 μl 1/2000 Alexa Fluor 488 goat anti rabbit IgG secondary antibody for final detection of Phospho-Rpb1 CTD (Ser5) together with 1/5000 HCS CellMask™ Deep Red stain for membrane staining and 1/5000 Hoechst 33258 for nucleus staining. Last, plates were washed 2 times with 30 μl D-PBS and wells were filled with 40 μL D-PBS, plates were sealed (Thermowell sealing tape) and stored at 4° C. until reading. Plates were read with Opera Phenix (Perkin Elmer) with 10× air objective. Data were calculated and analyzed in Phaedra.
IC50 values were calculated using the following formula:
Average value of all HC's and all LC's are used for normalizations. % Effect=100−(sample−LC)/(HC−LC)×100% Control=(sample/HC)×100
A best-fit curve is fitted by a minimum sum of squares method to the plot of % Control vs. compound concentration. From this an IC50 value can be obtained. An estimate of the slope of the plot in terms of the Hill coefficient is also obtained.

| Compound | IC50 [1] [nM] | IC50 [2] [nM] | CDK7 (20 nM) pIC50 [1] |
| --- | --- | --- | --- |
| C[C@@H]1Cc2cnc(NC3CCOCC3)nc2CN1C(=O)[C@H]1CCN(C)C[C@@H]1C1CC1 (racemic) [Compound 111] | 214 | 8320 |  |
| C[C@@H]1Cc2cnc(NC3CCOCC3)nc2CN1C(=O)N1CCNC[C@@H]1c1ccccc1 [Compound 208] |  | 1230 | 7.66 |
| C[C@@H]1Cc2cnc(N[C@H]3CC[C@@H](C)CC3)nc2CN1C(=O)[C@H]1CCN(C)C[C@@H]1c1ccccc1 [Compound 14] |  | 479 | 7.89 |
| C[C@@H]1Cc2cnc(NCC3CCOC3)nc2CN1C(=O)[C@H]1CCN(C)C[C@@H]1c1ccccc1 (stereo partly drawn) [Compound 26] |  | 302 | 7.85 |
| CO[C@]1(C)CC[C@H](Nc2ncc3c(n2)CN(C(=O)[C@H]2CCN(C)C[C@@H]2c2ccccc2)[C@H](C)C3)CC1 [Compound 11] | 13.8 | 1350 |  |
| C[C@@H]1Cc2cnc(NC3CCOCC3)nc2CN1C(=O)[C@H]1CCN(C)C[C@@H]1C1CCOCC1 (relative stereo) [Compound 115] | 120 | 6310 |  |
| Cc1ccc([C@H]2CN(C)CC[C@@H]2C(=O)N2Cc3nc(NC4CCOCC4)ncc3C[C@H]2C)cn1 (relative stereo) [Compound 107] | > 10000 | > 10000 |  |
| CO[C@H]1CC[C@@H](Nc2ncc3c(n2)CN(C(=O)[C@H]2CCN(C)C[C@@H]2c2ccccc2)[C@H](C)C3)CC1 [Compound 38] |  | 1380 | 7.46 |
| C[C@@H]1C[C@H](C(=O)N2Cc3nc(NC4CCOCC4)ncc3C[C@H]2C)[C@@H](c2ccccc2)CN1C (relative stereo) [Compound 170a] | 794 | > 10000 |  |
| CC[C@H]1Cc2cnc(NC3CCOCC3)nc2CN1C(=O)[C@H]1CCN(C)C[C@@H]1c1ccccc1 (relative stereo) [Compound 186] | > 10000 | > 10000 |  |
| Cc1ccc(CNc2ncc3c(n2)CN(C(=O)[C@H]2CCN(C)C[C@@H]2c2ccccc2)[C@H](C)C3)cn1 [Compound 27] |  | 2090 | 7.50 |
| CC(C)N1CC[C@H](C(=O)N2Cc3nc(NC4CCOCC4)ncc3C[C@H]2C)[C@@H](c2ccc(Cl)c(F)c2)C1 (single isomer, unassigned) [Compound 162] |  |  | 6.95 |
| C[C@@H]1Cc2cnc(NC3CCOCC3)nc2[C@@H](C)N1C(=O)[C@H]1CCN(C)C[C@@H]1c1ccccc1 (single isomer, unassigned) [Compound 195a] | 4680 | > 10000 |  |
| Cc1cc([C@H]2CN(C)CC[C@@H]2C(=O)N2Cc3nc(NC4CCOCC4)ncc3C[C@H]2C)ccn1 (relative stereo) [Compound 103] | > 10000 | > 10000 |  |
| C[C@@H]1Cc2cnc(NCC3CC3)nc2CN1C(=O)[C@H]1CCN(C)C[C@@H]1c1ccccc1 [Compound 34] |  | 275 | 7.94 |
| C[C@@H]1Cc2cnc(NC3CCN(C(=O)CC4CC4)CC3)nc2CN1C(=O)[C@H]1CCN(C)C[C@@H]1c1ccccc1 [Compound 31] |  | ~69.2 | 7.81 |
| C[C@@H]1Cc2cnc(NC3CCOCC3)nc2CN1C(=O)[C@H]1CN(C)C[C@@H]1c1ccccc1 (relative stereo) [Compound 169a] | 468 | > 10000 |  |
| C[C@@H]1Cc2cnc(NC3CCN(C4COC4)CC3)nc2CN1C(=O)[C@H]1CCN(C)C[C@@H]1c1ccccc1 [Compound 25] |  | 776 | 7.46 |
| CO[C@H]1CC[C@H](Nc2ncc3c(n2)CN(C(=O)C2CCN(C)CC2c2ccnc(C)c2)[C@H](C)C3)CC1 (stereo partly drawn) [Compound 104] | 12.9 | 1230 |  |
| C[C@@H]1Cc2cnc(NC3CCOCC3)nc2CN1C(=O)[C@@H]1CCN(C)C[C@H]1c1ccncc1 (relative stereo) [Compound 116] | 37.2 | 1410 |  |
| C[C@@H]1Cc2cnc(NCc3ccn(C)n3)nc2[C@@H](C)N1C(=O)[C@H]1CCN(C)C[C@@H]1c1ccccc1 (relative stereo) [Compound 197] | 776 | 2820 |  |
| C[C@@H]1CN(C(=O)[C@H]2CCN(C)C[C@@H]2c2ccccc2)[C@@H](C)c2nc(NC3CCOCC3)ncc21 [Compound 180b] |  | 3890 | 5.65 |
| C[C@@H]1Cc2cnc(NC3CCOCC3)nc2CN1C(=O)[C@@H]1CCN(C)C[C@H]1c1cccnc1 (relative stereo) [Compound 117] | 16.2 | > 10000 |  |
| Cc1cccc([C@@H]2CN(C)CC[C@H]2C(=O)N2Cc3nc(Nc4cnn(C)c4)ncc3C[C@H]2C)c1 (relative stereo) [Compound 125] | 339 | 794 |  |
| C[C@@H]1Cc2cnc(NC3CCN(C4CC4)CC3)nc2CN1C(=O)[C@H]1CCN(C)C[C@@H]1c1ccccc1 [Compound 42] |  | 1380 | 7.39 |
| C[C@@H]1Cc2cnc(NC3CCOCC3)nc2CN1C(=O)[C@H]1CCN(C)C[C@@H]1c1cccc(Cl)c1 (relative stereo) [Compound 119] | 72.4 | ~39.8 |  |
